Data set [1] can be described thus: Partition coefficient, logD of the compound in 1,9-decadiene and phosphate buffer at pH 7.4 measured after 30 mins under shaking condition by LC-MS analysis. Format: physicochemical.
Data set [2] can be described thus: Permeability of the compound in phosphate buffer containing 5% DMSO at pH 7.4 incubated for 15 hrs by PAMPA based LC/MS analysis. Particulars: pH 7.4, 15 h. The data set is classed as ADME.

Take `Cc1ncsc1-c1ccc(CNC(=O)[C@@H]2C[C@@H](O)CN2C(=O)[C@@H](NC(=O)[C@H](Cc2ccccc2)NC(=O)COCCOCCOCCNC(=O)C[C@@H]2N=C(c3ccc(Cl)cc3)c3c(sc(C)c3C)-n3c(C)nnc32)C(C)(C)C)cc1`: the logD hydrocarbon water at 0.5 h in data set [1] is -1.6.
As to `Cc1ncsc1-c1ccc(CNC(=O)[C@@H]2C[C@@H](O)CN2C(=O)[C@@H](NC(=O)COCCOCCOCCOCCOCCOCC(=O)N[C@H](C(=O)N2C[C@H](O)C[C@H]2C(=O)NCc2ccc(-c3scnc3C)cc2)C(C)(C)C)C(C)(C)C)cc1`, the Peff in data set [2] was 0.005 10^-6 cm/s. Besides, in data set [1], the logD hydrocarbon water at 0.5 h was -4.3.
Compound `Cc1ncsc1-c1ccc(CNC(=O)[C@@H]2C[C@@H](O)CN2C(=O)[C@@H](NC(=O)COCCOCCOCCNC(=O)C[C@@H]2N=C(c3ccc(Cl)cc3)c3c(sc(C)c3C)-n3c(C)nnc32)C(C)(C)C)cc1` registered a logD hydrocarbon water at 0.5 h in data set [1] of -1.6.
On to `CC(=O)N1c2ccc(-c3ccc(C(=O)NCCOCCOCCOCCOCC(=O)N[C@H](C(=O)N4C[C@H](O)C[C@H]4C(=O)NCc4ccc(-c5scnc5C)cc4)C(C)(C)C)cc3)cc2[C@H](Nc2ccc(Cl)cc2)C[C@@H]1C`, for which, in data set [1], the logD hydrocarbon water at 0.5 h was -0.7.
For the compound `Cc1ncsc1-c1ccc(CNC(=O)[C@@H]2C[C@@H](O)CN2C(=O)[C@@H](NC(=O)COCCOCCOCCOCC(=O)N[C@H](C(=O)N2C[C@H](O)C[C@H]2C(=O)NCc2ccc(-c3scnc3C)cc2)C(C)(C)C)C(C)(C)C)cc1`, in data set [2], the Peff was 0.009 10^-6 cm/s. The same compound came in with a logD hydrocarbon water at 0.5 h in data set [1] of -3.8.
In data set [1], `CC(=O)N[C@H](C(=O)N1C[C@H](O)C[C@H]1C(=O)NCc1ccc(-c2scnc2C)cc1)C(C)(C)SCCOCCOCCNC(=O)C[C@@H]1N=C(c2ccc(Cl)cc2)c2c(sc(C)c2C)-n2c(C)nnc21` returned a logD hydrocarbon water at 0.5 h of -4.3.
On the same count and under the same terms, to `CC(=O)N1c2ccc(-c3ccc(C(=O)NCCOCCOCC(=O)N[C@H](C(=O)N4C[C@H](O)C[C@H]4C(=O)NCc4ccc(-c5scnc5C)cc4)C(C)(C)C)cc3)cc2[C@H](Nc2ccc(Cl)cc2)C[C@@H]1C` belongs -0.7; to `Cc1ncsc1-c1ccc(CNC(=O)[C@@H]2C[C@@H](O)CN2C(=O)[C@@H](OC(=O)CCOCCOCCOCCNC(=O)Cc2ccccc2)C(C)(C)C)cc1`, -1.6; to `Cc1ncsc1-c1ccc(CNC(=O)[C@@H]2C[C@@H](O)CN2C(=O)[C@@H](NC(=O)COCCOCCNC(=O)C[C@@H]2N=C(c3ccc(Cl)cc3)c3c(sc(C)c3C)-n3c(C)nnc32)C(C)(C)C)cc1`, -1.1.
Same read-out and setting: to `Cc1ncsc1-c1ccc(CNC(=O)[C@@H]2C[C@@H](O)CN2C(=O)[C@@H](NC(=O)Cc2ccccc2)C(C)(C)C)cc1` belongs -0.7; to `CC(=O)N[C@H](C(=O)N1C[C@H](O)C[C@H]1C(=O)NCc1ccc(-c2scnc2C)cc1)C(C)(C)SCCOCCNC(=O)C[C@@H]1N=C(c2ccc(Cl)cc2)c2c(sc(C)c2C)-n2c(C)nnc21`, -3.8.
With `CC(=O)N[C@H](C(=O)N1C[C@H](O)C[C@H]1C(=O)NCc1ccc(-c2scnc2C)cc1)C(C)(C)SCCCCNC(=O)C[C@@H]1N=C(c2ccc(Cl)cc2)c2c(sc(C)c2C)-n2c(C)nnc21`, the logD hydrocarbon water at 0.5 h in data set [1] was -3.8.
The same measure, in the same setting: then `Cc1ncsc1-c1ccc(CNC(=O)[C@@H]2C[C@H](O)CN2C(=O)[C@@H](NC(=O)COCCOCCOCCOCCOCCOCC(=O)N[C@H](C(=O)N2C[C@@H](O)C[C@H]2C(=O)NCc2ccc(-c3scnc3C)cc2)C(C)(C)C)C(C)(C)C)cc1`, with -3.2.
`Cc1ncsc1-c1ccc(CNC(=O)[C@@H]2C[C@@H](O)CN2C(=O)[C@@H](NC(=O)CCOCCOCCOCCNC(=O)Cc2ccccc2)C(C)(C)C)cc1` had a logD hydrocarbon water at 0.5 h in data set [1] of -2.2.

Source of the values: ChEMBL document CHEMBL4725409, “Understanding and Improving the Membrane Permeability of VH032-Based PROTACs” (ACS Med Chem Lett, 2020).
